Here are results for one molecule from article PMC10541198, “Specific quinone reductase 2 inhibitors reduce metabolic burden and reverse Alzheimer’s disease phenotype in mice” (The Journal of Clinical Investigation, 2023).

Where “and” joins values, the source holds several entries; their conditions need not be identical. Identical values can stand only once.

The test system of one test is QR2Δ HCT116 cells. The test is described as follows: H2DCFDA detection of cellular ROS in QR2 KO cells. It counts as cell-based, human. To be noted: 20 μM, 3 hour. The protocol: (§1) To establish direct target engagement and cell membrane permeability, a cellular thermal shift assay (CETSA) was carried out, using leading QR2is YB’s-537, 800, and 808. Following a 1 hour preincubation with 5 μM of the QR2is or vehicle, thermal aggregation curves (Taggs) of QR2 expressed in HEK293T were measured in increasing temperatures. All QR2is increased QR2 thermal stability compared with vehicle (Supplemental Figure 2A). Based on the Tagg curves we selected 73°C for isothermal dose-response fingerprint (IDTRF) experiments (Supplemental Figure 2B). The ITDRF allowed the relative quantification of the binding of each of the QR2is to QR2, measured as the EC50 (Figure 3A). […] We evaluated the safety of the QR2is using cell toxicity and viability assays. […] Cell viability was assessed by XTT assay in HEK239T cells, using a dose response, with 3- or 24-hour incubations of the leading QR2is. […] We then assessed WT HCT116 cells by immunoblot (Supplemental Figure 2, C and D), after being treated with YB-800 (2 μM) for 4 consecutive days. […]
(§2) The cells wer e har ves t ed a nd resuspended in 1% cl ear m e di um ( DM EM – with no phenol red, suppl em ent ed with 1% FBS, 1% L-Glutamine and 1% Penicillin-Streptomycin). […] The plate wa s then incubated in the dark at 37°C f or 3 h, before reading in a Tecan M200 Pro florescence microplate reader, using wavelengths Ex/Em = 485 nm / 535 nm . […]

The test system of the next test is CD73. The test is described as follows: Immunoblot of CD73 in HCT116 cells after 4-day treatment. Type of test: cell-based, human. The conditions noted are these: 2 μM, 4 days. As for the experimental part:
as §1, §2
A general note: A western blot detects proteins with antibodies after separation by electrophoresis.

For `Cc1ccc(-c2cn3cccc(C)c3n2)cc1S(=O)(=O)N1CCC(C)CC1` [YB-800], the “ROS levels (replicates)” value in the test with QR2Δ HCT116 cells was 0.1657 and -0.09332 and -0.11 and 0.01889 and -0.0308. Moreover, the “CD73 expression (replicates)” value in the test on CD73 is 1.393 and 1.4862 and 1.532 and 1.811 and 1.4595 and 1.188.
